Experimental data as given in ChEMBL document CHEMBL1201862, “PubChem BioAssay data set” (2004).
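1) Cells in 96-well plates. 2) Compound, 48 h, 5 concentrations. 3) Linear interpolation between surrounding doses. 4) Unreached endpoint = highest concentration. The concentration for 50% growth inhibition is given as GI50.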 Active and inactive are the calls of the source. Cut-off read from the data, not from the text of the source: active = GI50 up to about 1.1 µM and inactive = higher.

How the values were obtained:
Assay in all cases: NCI tumour cell line growth inhibition, 48 h
[1] = tested on: EKVX
[2] = tested on: SNB-75
[3] = tested on: SK-MEL-2
[4] = tested on: KM12
[5] = tested on: SK-MEL-28
[6] = tested on: COLO 205
[7] = tested on: 786-0
[8] = tested on: LXFL 529
[9] = tested on: SF-295
[10] = tested on: IGROV-1
[11] = tested on: DMS-114
[12] = tested on: SK-OV-3
[13] = tested on: SF-268
[14] = tested on: UACC-62
[15] = tested on: HOP-92
[16] = tested on: MOLT-4
[17] = tested on: Malme-3M
[18] = tested on: SNB-19
[19] = tested on: OVCAR-8
[20] = tested on: OVCAR-3
[21] = tested on: UACC-257
[22] = tested on: UO-31
[23] = tested on: SF-539
[24] = tested on: K562
[25] = tested on: SW-620
[26] = tested on: KM-20L2
[27] = tested on: HT-29
[28] = tested on: M19-MEL
[29] = tested on: HCC 2998
[30] = tested on: NCI-H23
[31] = tested on: TK-10
[32] = tested on: SR
[33] = tested on: RPMI-8226
[34] = tested on: DMS-273
[35] = tested on: SK-MEL-5
[36] = tested on: OVCAR-5
[37] = tested on: SNB-78
[38] = tested on: RXF 393
[39] = tested on: A549
[40] = tested on: NCI-H226
[41] = tested on: HCT-15
[42] = tested on: ACHN
[43] = tested on: SN12C
[44] = tested on: U-251
[45] = tested on: PC-3
[46] = tested on: A498
[47] = tested on: MDA-MB-435
[48] = tested on: T47D
[49] = tested on: NCI-H522
[50] = tested on: CAKI-1
[51] = tested on: HOP-62
[52] = tested on: NCI/ADR-RES
[53] = tested on: HCT-116
[54] = tested on: OVCAR-4
[55] = tested on: CCRF-CEM
[56] = tested on: BT-549
[57] = tested on: MDA-N
[58] = tested on: DU-145
[59] = tested on: MDA-MB-231
[60] = tested on: Hs-578T
[61] = tested on: NCI-H460
[62] = tested on: LOX IMVI
[63] = tested on: MCF7
[64] = tested on: HL-60
[65] = tested on: M14

COc1ccc(/C=C/CO)cc1OC
GI50 [1]: > 100 µM (inactive)
GI50 [2]: > 100 µM (inactive)
GI50 [3]: > 100 µM (inactive)
GI50 [4]: > 100 µM (inactive)
GI50 [5]: > 100 µM (inactive)
GI50 [6]: > 100 µM (inactive)
GI50 [7]: > 100 µM (inactive)
GI50 [8]: > 100 µM (inactive)
GI50 [9]: > 100 µM (inactive)
GI50 [10]: > 100 µM (inactive)
GI50 [11]: > 100 µM (inactive)
GI50 [12]: > 100 µM (inactive)
GI50 [13]: > 100 µM (inactive)
GI50 [14]: > 100 µM (inactive)
GI50 [15]: 56.8 µM (inactive)
GI50 [16]: > 100 µM (inactive)
GI50 [17]: > 100 µM (inactive)
GI50 [18]: > 100 µM (inactive)
GI50 [19]: > 100 µM (inactive)
GI50 [20]: > 100 µM (inactive)
GI50 [21]: > 100 µM (inactive)
GI50 [22]: > 100 µM (inactive)
GI50 [23]: > 100 µM (inactive)
GI50 [24]: > 100 µM (inactive)
GI50 [25]: > 100 µM (inactive)
GI50 [26]: > 100 µM (inactive)
GI50 [27]: > 100 µM (inactive)
GI50 [28]: > 100 µM (inactive)
GI50 [29]: > 100 µM (inactive)
GI50 [30]: > 100 µM (inactive)
GI50 [31]: > 100 µM (inactive)
GI50 [32]: > 100 µM (inactive)
GI50 [33]: > 100 µM (inactive)
GI50 [34]: > 100 µM (inactive)
GI50 [35]: > 100 µM (inactive)
GI50 [36]: > 100 µM (inactive)
GI50 [37]: > 100 µM (inactive)
GI50 [38]: > 100 µM (inactive)
GI50 [39]: > 100 µM (inactive)
GI50 [40]: 49.9 µM (inactive)
GI50 [41]: > 100 µM
GI50 [42]: > 100 µM (inactive)
GI50 [43]: > 100 µM (inactive)
GI50 [44]: > 100 µM (inactive)

O=N/N=c1\o[n-][n+](CCc2ccccc2)c1Cc1/c(=N/N=O)o[n-][n+]1CCc1ccccc1
GI50 [45]: 33.8 µM (inactive)
GI50 [1]: 50 µM (inactive)
GI50 [2]: 19 µM (inactive)
GI50 [3]: 29.6 µM (inactive)
GI50 [4]: 78.2 µM (inactive)
GI50 [5]: 55.6 µM (inactive)
GI50 [46]: 46.8 µM (inactive)
GI50 [6]: > 100 µM (inactive)
GI50 [7]: 20.2 µM (inactive)
GI50 [9]: 25.6 µM (inactive)
GI50 [47]: 39.7 µM (inactive)
GI50 [10]: 25.1 µM (inactive)
GI50 [12]: 34.4 µM (inactive)
GI50 [13]: 32 µM (inactive)
GI50 [14]: 51.2 µM (inactive)
GI50 [15]: 27.1 µM (inactive)
GI50 [16]: > 100 µM (inactive)
GI50 [17]: 24.2 µM (inactive)
GI50 [48]: 27.9 µM (inactive)
GI50 [18]: 28.2 µM (inactive)
GI50 [49]: 23.1 µM (inactive)
GI50 [19]: 21.7 µM (inactive)
GI50 [50]: > 100 µM (inactive)
GI50 [51]: 23.2 µM (inactive)
GI50 [52]: > 100 µM (inactive)
GI50 [20]: 18.7 µM (inactive)
GI50 [21]: > 100 µM (inactive)
GI50 [22]: > 100 µM (inactive)
GI50 [23]: 20.7 µM (inactive)
GI50 [53]: 50.1 µM (inactive)
GI50 [24]: 25.2 µM (inactive)
GI50 [54]: 16.8 µM (inactive)
GI50 [25]: 89.7 µM (inactive)
GI50 [55]: > 100 µM (inactive)
GI50 [27]: 76 µM (inactive)
GI50 [56]: 32.9 µM (inactive)
GI50 [57]: 80.9 µM (inactive)
GI50 [29]: 44.9 µM (inactive)
GI50 [30]: 28.4 µM (inactive)
GI50 [31]: 25.2 µM (inactive)
GI50 [58]: 55.5 µM (inactive)
GI50 [59]: 33.9 µM (inactive)
GI50 [32]: 31.2 µM (inactive)
GI50 [60]: 28.7 µM (inactive)
GI50 [33]: 43.1 µM (inactive)
GI50 [35]: 31.2 µM (inactive)
GI50 [61]: 33.7 µM (inactive)
GI50 [36]: > 100 µM (inactive)
GI50 [38]: 39.2 µM (inactive)
GI50 [39]: > 100 µM (inactive)
GI50 [40]: 29.9 µM (inactive)
GI50 [62]: 91.4 µM (inactive)
GI50 [41]: > 100 µM
GI50 [63]: 70 µM (inactive)
GI50 [42]: 31.4 µM (inactive)
GI50 [43]: 34.5 µM (inactive)
GI50 [44]: 22.1 µM (inactive)
GI50 [64]: 30.8 µM (inactive)
GI50 [65]: 89.5 µM (inactive)

COc1ccccc1/C=C1\Sc2scc(-c3cccc([N+](=O)[O-])c3)[n+]2C1=O
GI50 [45]: 15.7 µM (inactive)
GI50 [1]: 11.4 µM (inactive)
GI50 [2]: 12.8 µM (inactive)
GI50 [3]: 12.8 µM (inactive)
GI50 [4]: 10.8 µM (inactive)
GI50 [5]: 15 µM (inactive)
GI50 [46]: 21.3 µM (inactive)
GI50 [6]: 2.11 µM (inactive)
GI50 [7]: 2.76 µM (inactive)
GI50 [9]: 17.5 µM (inactive)
GI50 [47]: 4.99 µM (inactive)
GI50 [10]: 7.46 µM (inactive)
GI50 [12]: 13.2 µM (inactive)
GI50 [13]: 4.78 µM (inactive)
GI50 [14]: 8.51 µM (inactive)
GI50 [15]: 4.98 µM (inactive)
GI50 [16]: 1.28 µM (inactive)
GI50 [17]: 3.3 µM (inactive)
GI50 [48]: 7.23 µM (inactive)
GI50 [18]: 12.1 µM (inactive)
GI50 [49]: 1.34 µM (inactive)
GI50 [19]: 7.19 µM (inactive)
GI50 [50]: 2.43 µM (inactive)
GI50 [51]: 13.9 µM (inactive)
GI50 [52]: 6.84 µM (inactive)
GI50 [20]: 9.75 µM (inactive)
GI50 [21]: 7.11 µM (inactive)
GI50 [22]: 2.86 µM (inactive)
GI50 [23]: 1.62 µM (inactive)
GI50 [53]: 4.69 µM (inactive)
GI50 [24]: 2.79 µM (inactive)
GI50 [54]: 13.3 µM (inactive)
GI50 [25]: 4.32 µM (inactive)
GI50 [55]: 0.476 µM (active)
GI50 [27]: 3.27 µM (inactive)
GI50 [56]: 2.55 µM (inactive)
GI50 [57]: 2.87 µM (inactive)
GI50 [29]: 10.4 µM (inactive)
GI50 [30]: 10.4 µM (inactive)
GI50 [31]: 2.83 µM (inactive)
GI50 [58]: 13.5 µM (inactive)
GI50 [59]: 5.04 µM (inactive)
GI50 [32]: 2.19 µM (inactive)
GI50 [60]: 18.5 µM (inactive)
GI50 [33]: 3.18 µM (inactive)
GI50 [35]: 2.53 µM (inactive)
GI50 [61]: 13.2 µM (inactive)
GI50 [36]: 15.6 µM (inactive)
GI50 [38]: 4.58 µM (inactive)
GI50 [39]: 17.1 µM (inactive)
GI50 [40]: 12.4 µM (inactive)
GI50 [62]: 1.71 µM (inactive)
GI50 [41]: 2.11 µM
GI50 [63]: 2 µM (inactive)
GI50 [42]: 3.06 µM (inactive)
GI50 [43]: 2.88 µM (inactive)
GI50 [44]: 14.9 µM (inactive)
GI50 [64]: 0.26 µM (active)
GI50 [65]: 3.93 µM (inactive)
